Laboratory results: PubChem BioAssay (NCI)
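Step 1: Grow cells in 96-well plates. Step 2: Expose to compound for 48 hours at 5 concentrations. Step 3: Interpolate endpoints linearly; if unreached, use highest concentration. GI50 marks 50% less growth. Definition used: TGI = concentration required for complete inhibition of growth.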

Columns and labels:
Experiment in all cases: growth of human tumour cells (NCI), 48 h
T-47D breast = test system: T-47D breast
RPMI-8226 leukemia = test system: RPMI-8226 leukemia
SK-MEL-5 melanoma = test system: SK-MEL-5 melanoma
LOX IMVI melanoma = test system: LOX IMVI melanoma
TK-10 renal = test system: TK-10 renal
COLO 205 colon = test system: COLO 205 colon
MDA-MB-435 = test system: MDA-MB-435
NCI-H226 lung = test system: NCI-H226 lung
MCF7 breast = test system: MCF7 breast
U251 CNS = test system: U251 CNS
RXF 393 renal = test system: RXF 393 renal
A549 NSCLC = test system: A549 NSCLC
EKVX NSCLC = test system: EKVX NSCLC
SF-295 CNS = test system: SF-295 CNS
SK-MEL-2 melanoma = test system: SK-MEL-2 melanoma
HCT-116 colon = test system: HCT-116 colon
CAKI-1 renal = test system: CAKI-1 renal
HOP-62 NSCLC = test system: HOP-62 NSCLC
HCT-15 colon = test system: HCT-15 colon
OVCAR-3 ovarian = test system: OVCAR-3 ovarian
BT-549 breast = test system: BT-549 breast
HT29 colon = test system: HT29 colon
NCI-H522 lung = test system: NCI-H522 lung
MOLT-4 leukemia = test system: MOLT-4 leukemia
MDA-MB-231 breast = test system: MDA-MB-231 breast
SK-OV-3 ovarian = test system: SK-OV-3 ovarian
HOP-92 NSCLC = test system: HOP-92 NSCLC
UACC-62 melanoma = test system: UACC-62 melanoma
HS 578T breast = test system: HS 578T breast
OVCAR-4 ovarian = test system: OVCAR-4 ovarian
CCRF-CEM leukemia = test system: CCRF-CEM leukemia
HL-60(TB) leukemia = test system: HL-60(TB) leukemia
SK-MEL-28 melanoma = test system: SK-MEL-28 melanoma
UO-31 renal = test system: UO-31 renal
786-0 renal = test system: 786-0 renal
ACHN renal = test system: ACHN renal
KM12 colon = test system: KM12 colon
SF-268 CNS = test system: SF-268 CNS
OVCAR-5 ovarian = test system: OVCAR-5 ovarian
M14 melanoma = test system: M14 melanoma
SW-620 colon = test system: SW-620 colon
IGROV1 ovarian = test system: IGROV1 ovarian
NCI-H460 lung = test system: NCI-H460 lung
NCI-H23 lung = test system: NCI-H23 lung
SNB-19 CNS = test system: SNB-19 CNS
PC-3 prostate = test system: PC-3 prostate
MALME-3M melanoma = test system: MALME-3M melanoma
OVCAR-8 ovarian = test system: OVCAR-8 ovarian
NCI/ADR-RES ovarian = test system: NCI/ADR-RES ovarian
UACC-257 melanoma = test system: UACC-257 melanoma
SF-539 CNS = test system: SF-539 CNS
SNB-75 CNS = test system: SNB-75 CNS
DU-145 prostate = test system: DU-145 prostate
SR leukemia = test system: SR leukemia
K-562 leukemia = test system: K-562 leukemia
A498 renal = test system: A498 renal

Q: With `COc1ccc2[nH]c(Cl)c(/C=C3/C(=O)N(C)c4ccccc43)c2c1` as the compound, how does the GI50 (T-47D breast) read?
A: 13.1 µM

Q: What about the TGI (T-47D breast) of the same compound?
A: 63.4 µM

Q: And the GI50 (RPMI-8226 leukemia)?
A: > 100 µM

Q: And the TGI (RPMI-8226 leukemia)?
A: > 100 µM

Q: What about the GI50 (SK-MEL-5 melanoma) of the same compound?
A: 69.3 µM

Q: And the TGI (SK-MEL-5 melanoma)?
A: > 100 µM

Q: And the GI50 (LOX IMVI melanoma)?
A: > 100 µM

Q: And the TGI (LOX IMVI melanoma)?
A: > 100 µM

Q: What about the GI50 (TK-10 renal) of the same compound?
A: > 100 µM

Q: What about the TGI (TK-10 renal) of the same compound?
A: > 100 µM

Q: And the GI50 (COLO 205 colon)?
A: 21.7 µM

Q: And the TGI (COLO 205 colon)?
A: > 100 µM

Q: What about the GI50 (MDA-MB-435) of the same compound?
A: > 100 µM

Q: What about the TGI (MDA-MB-435) of the same compound?
A: > 100 µM

Q: What about the GI50 (NCI-H226 lung) of the same compound?
A: 29.4 µM

Q: And the TGI (NCI-H226 lung)?
A: > 100 µM

Q: What about the GI50 (MCF7 breast) of the same compound?
A: > 100 µM

Q: What about the TGI (MCF7 breast) of the same compound?
A: > 100 µM

Q: What about the GI50 (U251 CNS) of the same compound?
A: > 100 µM

Q: And the TGI (U251 CNS)?
A: > 100 µM

Q: And the GI50 (RXF 393 renal)?
A: > 100 µM

Q: And the TGI (RXF 393 renal)?
A: > 100 µM

Q: And the GI50 (A549 NSCLC)?
A: > 100 µM

Q: And the TGI (A549 NSCLC)?
A: > 100 µM

Q: What about the GI50 (EKVX NSCLC) of the same compound?
A: > 100 µM

Q: What about the TGI (EKVX NSCLC) of the same compound?
A: > 100 µM

Q: And the GI50 (SF-295 CNS)?
A: > 100 µM

Q: And the TGI (SF-295 CNS)?
A: > 100 µM

Q: What about the GI50 (SK-MEL-2 melanoma) of the same compound?
A: > 100 µM

Q: What about the TGI (SK-MEL-2 melanoma) of the same compound?
A: > 100 µM

Q: And the GI50 (HCT-116 colon)?
A: 42.5 µM

Q: And the TGI (HCT-116 colon)?
A: > 100 µM

Q: And the GI50 (CAKI-1 renal)?
A: > 100 µM

Q: What about the TGI (CAKI-1 renal) of the same compound?
A: > 100 µM

Q: What about the GI50 (HOP-62 NSCLC) of the same compound?
A: 92 µM

Q: And the TGI (HOP-62 NSCLC)?
A: > 100 µM

Q: What about the GI50 (HCT-15 colon) of the same compound?
A: > 100 µM

Q: And the TGI (HCT-15 colon)?
A: > 100 µM

Q: What about the GI50 (OVCAR-3 ovarian) of the same compound?
A: 55.1 µM

Q: And the TGI (OVCAR-3 ovarian)?
A: > 100 µM

Q: And the GI50 (BT-549 breast)?
A: > 100 µM

Q: What about the TGI (BT-549 breast) of the same compound?
A: > 100 µM

Q: And the GI50 (HT29 colon)?
A: > 100 µM

Q: And the TGI (HT29 colon)?
A: > 100 µM

Q: And the GI50 (NCI-H522 lung)?
A: > 100 µM

Q: And the TGI (NCI-H522 lung)?
A: > 100 µM

Q: And the GI50 (MOLT-4 leukemia)?
A: 79.1 µM

Q: What about the TGI (MOLT-4 leukemia) of the same compound?
A: > 100 µM

Q: And the GI50 (MDA-MB-231 breast)?
A: 36.5 µM

Q: And the TGI (MDA-MB-231 breast)?
A: > 100 µM

Q: What about the GI50 (SK-OV-3 ovarian) of the same compound?
A: 77.4 µM

Q: What about the TGI (SK-OV-3 ovarian) of the same compound?
A: > 100 µM

Q: And the GI50 (HOP-92 NSCLC)?
A: 91.3 µM

Q: And the TGI (HOP-92 NSCLC)?
A: > 100 µM

Q: What about the GI50 (UACC-62 melanoma) of the same compound?
A: 71 µM

Q: What about the TGI (UACC-62 melanoma) of the same compound?
A: > 100 µM

Q: And the GI50 (HS 578T breast)?
A: > 100 µM

Q: What about the TGI (HS 578T breast) of the same compound?
A: > 100 µM

Q: And the GI50 (OVCAR-4 ovarian)?
A: > 100 µM

Q: And the TGI (OVCAR-4 ovarian)?
A: > 100 µM

Q: And the GI50 (CCRF-CEM leukemia)?
A: 43.6 µM

Q: What about the TGI (CCRF-CEM leukemia) of the same compound?
A: > 100 µM

Q: And the GI50 (HL-60(TB) leukemia)?
A: > 100 µM

Q: And the TGI (HL-60(TB) leukemia)?
A: > 100 µM

Q: And the GI50 (SK-MEL-28 melanoma)?
A: > 100 µM

Q: What about the TGI (SK-MEL-28 melanoma) of the same compound?
A: > 100 µM

Q: What about the GI50 (UO-31 renal) of the same compound?
A: > 100 µM

Q: What about the TGI (UO-31 renal) of the same compound?
A: > 100 µM

Q: And the GI50 (786-0 renal)?
A: > 100 µM

Q: What about the TGI (786-0 renal) of the same compound?
A: > 100 µM

Q: And the GI50 (ACHN renal)?
A: > 100 µM

Q: And the TGI (ACHN renal)?
A: > 100 µM

Q: What about the GI50 (KM12 colon) of the same compound?
A: 16.9 µM

Q: What about the TGI (KM12 colon) of the same compound?
A: 34.7 µM

Q: What about the GI50 (SF-268 CNS) of the same compound?
A: > 100 µM

Q: And the TGI (SF-268 CNS)?
A: > 100 µM

Q: What about the GI50 (OVCAR-5 ovarian) of the same compound?
A: > 100 µM

Q: What about the TGI (OVCAR-5 ovarian) of the same compound?
A: > 100 µM

Q: What about the GI50 (M14 melanoma) of the same compound?
A: > 100 µM

Q: And the TGI (M14 melanoma)?
A: > 100 µM

Q: And the GI50 (SW-620 colon)?
A: 96.6 µM

Q: And the TGI (SW-620 colon)?
A: > 100 µM

Q: And the GI50 (IGROV1 ovarian)?
A: > 100 µM

Q: And the TGI (IGROV1 ovarian)?
A: > 100 µM

Q: And the GI50 (NCI-H460 lung)?
A: > 100 µM

Q: What about the TGI (NCI-H460 lung) of the same compound?
A: > 100 µM

Q: What about the GI50 (NCI-H23 lung) of the same compound?
A: > 100 µM

Q: And the TGI (NCI-H23 lung)?
A: > 100 µM

Q: And the GI50 (SNB-19 CNS)?
A: 48.9 µM

Q: What about the TGI (SNB-19 CNS) of the same compound?
A: > 100 µM

Q: What about the GI50 (PC-3 prostate) of the same compound?
A: > 100 µM

Q: And the TGI (PC-3 prostate)?
A: > 100 µM

Q: And the GI50 (MALME-3M melanoma)?
A: > 100 µM

Q: And the TGI (MALME-3M melanoma)?
A: > 100 µM

Q: And the GI50 (OVCAR-8 ovarian)?
A: > 100 µM

Q: And the TGI (OVCAR-8 ovarian)?
A: > 100 µM

Q: What about the GI50 (NCI/ADR-RES ovarian) of the same compound?
A: > 100 µM

Q: What about the TGI (NCI/ADR-RES ovarian) of the same compound?
A: > 100 µM

Q: And the GI50 (UACC-257 melanoma)?
A: > 100 µM

Q: What about the TGI (UACC-257 melanoma) of the same compound?
A: > 100 µM

Q: Which results are given for `COC12C=CC(CC1)C1C(=O)c3c(C)c(C)n(C)c3C(=O)C12` (stereo not drawn)?
A: TGI (T-47D breast): > 100 µM; TGI (RPMI-8226 leukemia): > 100 µM; TGI (SK-MEL-5 melanoma): > 100 µM; TGI (LOX IMVI melanoma): > 100 µM; TGI (TK-10 renal): > 100 µM; TGI (COLO 205 colon): > 100 µM; TGI (MDA-MB-435): > 100 µM; TGI (NCI-H226 lung): > 100 µM; TGI (MCF7 breast): > 100 µM; TGI (U251 CNS): > 100 µM; TGI (RXF 393 renal): > 100 µM; TGI (SF-539 CNS): > 100 µM; TGI (EKVX NSCLC): > 100 µM; TGI (SNB-75 CNS): > 100 µM; TGI (SF-295 CNS): > 100 µM; TGI (SK-MEL-2 melanoma): > 100 µM; TGI (HCT-116 colon): > 100 µM; TGI (HOP-62 NSCLC): > 100 µM; TGI (DU-145 prostate): > 100 µM; TGI (HCT-15 colon): > 100 µM; TGI (OVCAR-3 ovarian): > 100 µM; TGI (BT-549 breast): > 100 µM; TGI (HT29 colon): > 100 µM; TGI (MOLT-4 leukemia): > 100 µM; TGI (SK-OV-3 ovarian): > 100 µM; TGI (UACC-62 melanoma): > 100 µM; TGI (HS 578T breast): > 100 µM; TGI (CCRF-CEM leukemia): > 100 µM; TGI (SR leukemia): > 100 µM; TGI (UO-31 renal): > 100 µM; TGI (786-0 renal): > 100 µM; TGI (ACHN renal): > 100 µM; TGI (KM12 colon): > 100 µM; TGI (SF-268 CNS): > 100 µM; TGI (OVCAR-5 ovarian): > 100 µM; TGI (M14 melanoma): > 100 µM; TGI (K-562 leukemia): > 100 µM; TGI (SW-620 colon): > 100 µM; TGI (A498 renal): > 100 µM; TGI (IGROV1 ovarian): > 100 µM; TGI (NCI-H460 lung): > 100 µM; TGI (NCI-H23 lung): > 100 µM; TGI (SNB-19 CNS): > 100 µM; TGI (PC-3 prostate): > 100 µM; TGI (MALME-3M melanoma): > 100 µM; TGI (OVCAR-8 ovarian): > 100 µM; TGI (NCI/ADR-RES ovarian): > 100 µM; TGI (UACC-257 melanoma): > 100 µM
